Results: patent US5478854A, “Deoxy taxols” (Bristol-Myers Squibb Company, priority 1994, dated 1995)
Like-named read-outs stand apart in the source and are kept apart here.

Key:
[1] = tested on: human colon carcinoma cells HCT-116/VM46; assay: In vitro cytotoxicity (XTT assay), 72 h, HCT-116/VM46 multi-drug resistant cells; assay type: cell-based; details: for IC50: Homo sapiens, read-out: IC50, drug concentration required to inhibit cell proliferation to 50% of untreated control
[2] = tested on: human colon carcinoma cells HCT-116; assay: In vitro cytotoxicity (XTT assay), 72 h, HCT-116 human colon carcinoma cells; assay type: cell-based; details: read-out: IC50, drug concentration required to inhibit cell proliferation to 50% of untreated control
[3] = tested on: advanced cases of ovarian, breast, and other cancers; details: NCI trials; cited from earlier work
[4] = HCT-116/VM46 vs HCT-116, value in parentheses, 4320 min
[5] = HCT-116/VM46 (teniposide-selected, multi-drug resistant), XTT, 72 h

In the case of `CC(=O)O[C@H]1C(=O)[C@]2(C)CC[C@H]3OC[C@@]3(OC(C)=O)[C@H]2[C@H](OC(=O)c2ccccc2)[C@]2(O)C[C@H](OC(=O)[C@H](O)[C@@H](NC(=O)OC(C)(C)C)c3ccccc3)C(C)=C1C2(C)C` [Ia, N-Debenzoyl-N-t-butoxycarbonyl-7-deoxytaxol], the “fold resistance relative to HCT116 cells” value [1, 4] is reported as 3.5 fold, the IC50 [1, 5] is reported as 7 nM and the IC50 ([2]; HCT-116, XTT, 72 h) is reported as 2 nM.
In the case of `CC(=O)O[C@H]1C(=O)[C@]2(C)CC[C@H]3OC[C@@]3(OC(C)=O)[C@H]2[C@H](OC(=O)c2ccccc2)[C@]2(O)C[C@H](OC(=O)[C@H](O)[C@@H](NC(=O)c3ccccc3)c3ccccc3)C(C)=C1C2(C)C` [Ib, 7-Deoxytaxol], the “fold resistance relative to HCT116 cells” value [1, 4] is reported as 14 fold, the IC50 [1, 5] is reported as 55 nM and the IC50 ([2]; HCT-116, XTT, 72 h) is reported as 4 nM.
In the case of `CC(=O)O[C@@]12CO[C@@H]1CC[C@@]1(C)C(=O)CC3=C(C)[C@@H](OC(=O)[C@H](O)[C@@H](NC(=O)OC(C)(C)C)c4ccccc4)C[C@@](O)([C@@H](OC(=O)c4ccccc4)[C@H]21)C3(C)C` [Ic, N-Debenzoyl-N-t-butoxycarbonyl-7-deoxy-10-deoxy-10-desacetyloxytaxol], the IC50 ([2]; HCT-116, 72 h) is reported as 12 nM.
`CC(=O)O[C@@]12CO[C@@H]1CC[C@@]1(C)C(=O)CC3=C(C)[C@@H](OC(=O)[C@H](O)[C@@H](NC(=O)c4ccccc4)c4ccccc4)C[C@@](O)([C@@H](OC(=O)c4ccccc4)[C@H]21)C3(C)C` [Id, 7-Deoxy-10-desacetyloxytaxol] gave an IC50 ([2]; HCT-116, 72 h) of 29 nM.
For `CC(=O)O[C@H]1C(=O)[C@@]2(C)[C@H]([C@H](OC(=O)c3ccccc3)[C@]3(O)C[C@H](OC(=O)[C@H](O)[C@@H](NC(=O)c4ccccc4)c4ccccc4)C(C)=C1C3(C)C)[C@]1(OC(C)=O)CO[C@@H]1C[C@@H]2O` [Taxol], the IC50 ([1]; HCT-116/VM46, 72 h) was 440 nM, the “fold resistance relative to HCT116 cells” value ([1]; human, hct-116/vm46 vs hct-116, 4320 min) was 124 fold and the IC50 ([2]; HCT-116, 72 h) was 4 nM. For the same compound, the “clinical results in advanced cancers (in words)” value [3] was “promising results”.
For `CC(=O)O[C@@]12CO[C@@H]1C[C@H](O)[C@@]1(C)C(=O)[C@H](O)C3=C(C)[C@@H](OC(=O)[C@H](O)[C@@H](NC(=O)OC(C)(C)C)c4ccccc4)C[C@@](O)([C@@H](OC(=O)c4ccccc4)[C@H]21)C3(C)C` [taxotere, reference compound], the “fold resistance relative to HCT116 cells” value [1, 4] was 53 fold, the IC50 [1, 5] was 213 nM and the IC50 ([2]; HCT-116, XTT, 72 h) was 4 nM.
